Experimental data reported in patent publication US4622327A, “2H-azeto[2,1-a]-isoquinoline derivatives and pharmaceutical compositions containing them” (Richter Gedeon Vegyeszeti Gyar R.T., priority 1983, dated 1986).

Key:
pentylenetetrazole spasm = test: Metrazole spasm; assay type: in vivo; settings: mice, 30 mg/kg oral, pentylenetetrazole 125 mg/kg s.c., observation one hour
Protocol: (§1) For the pharmacological tests CFLP (LATI) mice of both sexes, weighing 18 to 22 g each and male Han. Wistar (LATI) rats weighing 160 to 180 g each were used. The test materials were administered orally, in 30 mg/kg doses, in the form of a suspension containing 5% of Tween 80, one hour before the tests.
2. Metrazole spasm (mice)
After pretreatment the animals were administered 125 mg/kg of pentylenetetrazole subcutaneously.
Observation time: one hour (Everett L. M. and Richards R. K.: J. Pharmacol. Exp. Ther. 81, 402/1944/).

[1] = system: acetic acid-induced writhing syndrome; test: Analgesic activity (acetic acid writhing syndrome); assay type: in vivo, mice; settings: for Analgesic activity: 30 mg/kg oral, change in writhing frequency vs control
Protocol: as §1
4. Analgesic activity (mice)
One hour after pretreatment, mice were administered 0.4 ml of a 0.6% acetic acid solution intraperitoneally, as a pain stimulus. The frequency of writhing syndrome is registered for 30 minutes. The changes observed as a result of treatment with the test compounds is related to the mean value of the frequency of writhing syndrome in the control group, and the difference is expressed in percentage (Koster R. et al.: Exp. Ther. 72:74/1941/).

[2] = system: hyperthermia induced with Brewer's yeast; test: Antipyretic activity (Brewer's yeast hyperthermia); assay type: in vivo, rats; settings: for ED50: Rattus norvegicus, po, read-out: Antipyretic activity, ED50
Protocol: as §1
5. Antipyretic activity (rats)
Hyperthermia is induced in rats with Brewer's yeast suspension (0.5% of Brewer's yeast, 1% of arabic gum in a volume of 0.3 ml, s.c.). The animals are treated with the test materials 4 hours later, and the tracheal temperature of the animals is registered with an ELAB thermometer (typ. TE-3) for 4 hours. The antipyretic activity is expressed in percentage of the animals which have an at least one centrigrade lower temperature than the average of the temperature of the control group treated with the solvent (Nimegeers C. J. E. et al.: Arzneimittel Forsch. 25:15/9/1975/).

tonic, extensoric spasm = test: Maximum electroshock; assay type: in vivo; settings: mice, 30 mg/kg oral, one hour before test
Protocol: as §1
1. Maximum electroshock (mice)
The shock was applied through a corneal electrode (20 mA, 0.2 msec, HSE Schockgerat typ. 207).

Row | SMILES | Antispasm activity, metrazole, b (tonic extensoric spasm) (pentylenetetrazole spasm) | decrease of the frequency of acetic acid-induced writhing syndrome ([1]; mice, 30 mg/kg) | Analgesic activity ([1]; mice) [%] | ED50 [2] [mg/kg] | antipyretic potency relative to Na-salicylate ([2]; rats) | Antispasm activity, max. electroshock (tonic, extensoric spasm) | Antipyretic activity ([2]; rats, 30 mg/kg oral, % of animals with at least one centigrade lower temperature than control) [%] | analgesic effect in words ([1]; 30 mg/kg) | ED50 ([1]; Mus musculus, po, read-out: Analgesic activity, ED50) [mg/kg]
1 | COc1cc2c(cc1OC)C1C(CCl)CN1CC2.I (stereo not shown) [Compound A, 1-(chloromethyl)-7,8-dimethoxy-1,4,5,9b-tetrahydro-2H-azeto[2,1-a]isoquinoline hydroiodide] | 20.0 | about 30% | 30.0 | 75 | one and a half-times more potent |  |  |  | 
2 | CCOc1cc2c(cc1OCC)C1C(CCl)CN1CC2.Cl (stereo not shown) [Compound B, 1-(chloromethyl)-7,8-diethoxy-1,4,5,9b-tetrahydro-2H-azeto[2,1-a]isoquinoline hydrochloride] | 24.0 |  | 20.0 |  |  | 20.0 | 30.0 |  | 
3 | O=C(O)c1ccccc1O [Na--salycilate, reference compound] | 20.0 |  |  | 110 |  |  |  | ineffective | 113
